{"source": "patent US20060276414A1", "about": "“Use of compositions comprising an estrogenic component for the treatment and prevention of musculoskeletal pain” (priority 2003, published 2006)", "key": {"[1]": {"tested_on": "early breast cancer in postmenopausal women", "conditions": "9366 patients; cited from earlier work"}, "[2]": {"tested_on": "musculoskeletal pain in premenopausal breast cancer patients", "test": "Example 3: placebo-controlled cross-over study, premenopausal breast cancer patients on estrogen suppressant therapy", "type": "in vivo, human patients", "conditions": "premenopausal patients with ovarian ablation, estetrol plus estrogen suppressant"}, "[3]": {"tested_on": "bone resorption, hot flushing and vaginal cornification", "test": "agonistic models of in vivo estrogenicity (previous studies)", "conditions": "data from previous studies", "method": "The doses of EE and E4 were based on data from previous studies, showing equipotency of 0.025 mg/kg/day EE and 0.5 mg/kg/day E4 in agonistic models of preventing bone resorption, prevention of hot flushing and vaginal comification."}, "[4]": {"tested_on": "tumour gene expression profile and musculoskeletal pain in postmenopausal breast cancer patients", "test": "Example 4: placebo-controlled cross-over study with fine needle aspiration, postmenopausal breast cancer patients (at least stage III)", "type": "in vivo, human patients", "conditions": "for average musculoskeletal pain sensation value during treatment weeks, vs placebo: 6 weeks", "source_text": "20 postmenopausal patients are recruited that have breast cancer in at least clinical staging […], have a palpable macroscopic tumour mass, show estrogen receptor positive tumour histology, have already been treated with either an anti-estrogen or an aromatase inhibitor for at least three months, do no have contraindications for steroid therapy and suffer from musculoskeletal pain complaints (defined as skeletal pain, pain in the legs, arms or back). Furthermore, during the screening phase other diagnoses, such as rheumatoid arthritis and/or other skeletal diseases or joint diseases, are excluded.\n(§1) The patients participate in a clinical study with a duration of 15 weeks and are randomized as follows:\n(§2) Patients continue with the anti-estrogen treatment they have been receiving previously during the entire period of the study and receive additional daily oral treatment with 4 mg estetrol or a placebo for six weeks. 5 patients start with 4 mg/day oral estetrol treatment and 5 patients with placebo treatment. After a wash-out period of 3 weeks, during which anti-estrogen treatment continues and no additional estetrol or placebo treatment is given, study treatment is reinitiated. Placebo-receiving patients are subsequently treated with 4 mg/day oral estetrol and estetrol-receiving patients with placebo for 6 weeks after which the study is terminated.\nas §2, with “aromatase inhibitor” for “anti-estrogen”\nThe patients visit the study center once weekly, during which the patients are closely monitored by their study physician. During all visits, thorough physical examinations are performed, blood samples are retrieved and a questionnaire, specifically addressing musculoskeletal pain sensation on a graded scale, is completed. Furthermore, three fine needle aspirations (FNA) from the macroscopic tumour are obtained at baseline, during the wash-out and at the last visit after study week 15, respectively. Additionally at the same time points and for all locations with macroscopic palpable tumour activity, tumour sizes are scored. Tumour gene expression profiles are determined by using a FNA-cDNA microarray as described by Sotiriou et al. (Breast Cancer Research 2002,4:R3). Primary endpoints in the study are changes of the gene expression profile, improvement of the musculoskeletal pain and reduction of climacteric complaints, whereas secondary endpoints are clinical tumour progression and changes of tumour markers."}, "[5]": {"tested_on": "musculoskeletal pain in postmenopausal breast cancer patients", "test": "Example 2: placebo-controlled cross-over study, postmenopausal breast cancer patients (stage I or II) on estrogen suppressant therapy", "type": "in vivo, human patients", "conditions": "for average musculoskeletal pain sensation value during treatment weeks, vs placebo: 4 mg/day oral estetrol, 6 weeks", "source_text": "20 postmenopausal patients are recruited that have breast cancer in clinical staging I or II, are adequately being treated surgically, chemotherapeutically and/or radiotherapeutically, show estrogen receptor positive tumour histology and do no have contraindications for steroid therapy, are on treatment with either an anti-estrogen or an aromatase inhibitor for at least three months and suffer from musculoskeletal pain complaints (defined as skeletal pain, pain in the legs, arms or back). Furthermore, during the screening phase other diagnoses, such as rheumatoid arthritis and/or other skeletal diseases or joint diseases, are excluded.\nas §1\nas §2, with “anti-estrogen treatment that they have” for “anti-estrogen treatment they have”\nPatients continue with the aromatase inhibitor treatment that they have been receiving previously during the entire period of the study and receive additional daily oral treatment with 4 mg estetrol or a placebo for six weeks. 5 patients start with 4 mg/day oral estetrol treatment and 5 patients with placebo treatment. After a wash-out period of 3 weeks, during which aromatase inhibitor treatment continues and no additional estetrol or placebo treatment is given, study treatment is reinitiated. Placebo-receiving patients are subsequently treated with 4 mg/day oral estetrol and estetrol-receiving patients with placebo for 6 weeks after which the study is terminated.\nThe subjects visit the study center once weekly, during which the patients are closely monitored by their study physician. During all visits, thorough physical examinations are performed, blood samples are retrieved and a questionnaire, specifically addressing musculoskeletal pain sensation on a graded scale and climacteric complaints, is completed. Primary endpoints in the study are improvement of the musculoskeletal pain and reduction of climacteric complaints, whereas secondary endpoints are clinical tumour progression and changes of tumour markers."}, "[6]": {"tested_on": "DMBA-induced mammary tumours", "test": "7,12-dimethyl-benz(a)anthracene (DMBA)-induced tumour model in rats", "type": "in vivo, Sprague-Dawley rats", "method": "In order to assess the effect of the present estrogenic substances on tumours, estetrol was tested in the 7,12-dimethyl-benz(a)anthracene (DMBA)-induced tumour model in rats. This model, originally developed by Huggins et al.,1961 (Nature,19, 204-207), has been widely used and is a generally accepted model with predictive value for anti-tumour agents in humans. The growth of the DMBA-induced tumours is dependent on endogenously produced estradiol or exogenously administered estrogens and prolactin (Sylvester et al., 1982, Cancer Research, 42, 4943-4947).\nEighty-four female Sprague-Dawley rats (Harlan, The Netherlands) were group housed, maintained in a 12-hr light/dark environment, and fed a Soya Free Diet (SDS England) and water ad libitum. Animals were weighed on a weekly basis. One week prior to induction of mammary carcinoma, 12 animals (aged 43 days) were surgically castrated via removal of the ovaries. At the age of 50 days, all animals were administered a single oral dose of 16 mg DMBA to induce tumour development. Animals were subsequently allocated to one of seven groups (n=12), receiving placebo or treatment as follows:. • Group 1 animals received placebo oral treatment with 3.0 ml/kg/day vehicle (20% wt/vol solution of hydroxypropyl-beta-cyclodextrin in water); • Group 2 surgically castrated animals received placebo treatment with 3.0 ml/kg/day vehicle; • Group 3 animals received the anti-estrogen tamoxifen given orally at a single daily dose of 3 mg/kg; • Group 4 animals received ethinylestradiol (EE) orally at a single daily dose of 0.025 mg/kg; • Group S animals received ethinylestradiol (EE) orally at a single daily dose of 0.125 mg/kg; • Group 6 animals received estetrol (E4) orally at a single daily dose of 0.5 mg/kg; and • Group 7 animals received estetrol (E4) orally at a single daily dose of 2.5 mg/kg.\nDuring the treatment period of 8 weeks, the emergence of palpable tumours and number of tumours were determined weekly. At 8 weeks, at necropsy, final measurements were taken. The number of tumours at necropsy are depicted in FIG. 1."}, "[7]": {"tested_on": "DMBA-induced mammary tumours", "conditions": "literature (Hollingsworth et al., 1998); cited from earlier work"}, "[8]": {"conditions": "4 mg/day oral estetrol added to estrogen suppressant therapy"}}}
{"smiles": "CC(C)(C#N)c1cc(Cn2cncn2)cc(C(C)(C)C#N)c1", "note": "[anastrozole]", "values": [{"measurement": "disease-free survival and incidence of contralateral breast cancer, compared with tamoxifen", "setting": "[1]", "value": "significantly superior"}]}
{"smiles": "C[C@]12CC[C@@H]3c4ccc(O)cc4CC[C@H]3[C@@H]1[C@@H](O)[C@@H](O)[C@@H]2O", "note": "[estetrol, 1,3,5 (10)-estratrien-3,15α,16α,17β-tetrol]", "values": [{"measurement": "clinical outcome (musculoskeletal pain) compared with postmenopausal patients", "setting": "[2]", "value": "similar-to the clinical outcome reported for postmenopausal breast cancer patients"}, {"measurement": "equipotency with EE in preventing bone resorption, prevention of hot flushing and vaginal cornification", "setting": "[3]; 0.5 mg/kg/day E4 vs 0.025 mg/kg/day EE", "value": "equipotency"}, {"measurement": "equipotency with EE in in vivo estrogenicity (preventing bone resorption, hot flushing, vaginal cornification)", "setting": "[3]; 2.5 mg/kg/day E4 vs 0.125 mg/kg/day EE", "value": "equipotency"}, {"measurement": "climacteric complaints (questionnaires)", "setting": "[4]; [8]", "value": "overall reduction"}, {"measurement": "molecular profile on concomitant administration with an anti-estrogen or an aromatase inhibitor", "setting": "[4]; 4 mg/day oral estetrol plus anti-estrogen or aromatase inhibitor", "value": "synergistically produces a more beneficial molecular profile"}, {"measurement": "average musculoskeletal pain sensation value during treatment weeks, vs placebo", "setting": "[4]; 4 mg/day oral estetrol, concomitant anti-estrogen therapy", "value": "significantly lower"}, {"measurement": "average musculoskeletal pain sensation value during treatment weeks, vs placebo", "setting": "[4]; 4 mg/day oral estetrol, concomitant aromatase inhibitor therapy", "value": "significantly lower"}, {"measurement": "changes in the gene-expression profile involved in regulation and deregulation of breast tissue proliferation", "setting": "[4]; 4 mg/day oral estetrol, FNA-cDNA microarray", "value": "favourable association"}, {"measurement": "tumour progression / sizes of macroscopic tumours", "setting": "[4]; additional estetrol treatment, vs baseline and progression data for stages III and more", "value": "tumours progress more slowly or sizes of macroscopically tumours decline"}, {"measurement": "climacteric complaints (questionnaires)", "setting": "[5]; [8]", "value": "overall reduction"}, {"measurement": "average musculoskeletal pain sensation value during treatment weeks, vs placebo", "setting": "[5]; concomitant anti-estrogen therapy", "value": "significantly lower"}, {"measurement": "average musculoskeletal pain sensation value during treatment weeks, vs placebo", "setting": "[5]; concomitant aromatase inhibitor therapy", "value": "significantly lower"}, {"measurement": "clinical tumour progression and tumour markers", "setting": "[5]; during treatment with estetrol, vs baseline and recurrency data for stages I and II", "value": "do not show significant adverse changes"}, {"measurement": "preventing growth of DMBA-induced tumours, compared with tamoxifen", "setting": "[6]; E4 2.5 mg/kg/day orally vs tamoxifen 3 mg/kg/day orally", "value": "as effective as tamoxifen"}, {"measurement": "mammary tumour development (number of tumours at necropsy)", "setting": "[6]; E4 2.5 mg/kg/day orally, 8 weeks, DMBA-treated female rats", "value": "markedly suppressed mammary tumour development"}]}
{"smiles": "CC/C(=C(\\c1ccccc1)c1ccc(OCCN(C)C)cc1)c1ccccc1", "note": "[tamoxifen, reference compound]", "values": [{"measurement": "anti-tumour treatment in the DMBA model", "setting": "[7]", "value": "effective anti-tumour treatments"}, {"measurement": "development of mammary tumours (number of tumours at necropsy)", "setting": "[6]; tamoxifen 3 mg/kg/day orally, 8 weeks, DMBA-treated female rats", "value": "inhibiting the development of mammary tumours"}]}
